Reference: the NIST ThermoML archive (doi:10.1021/je8009545)
Numbers after ± are expanded uncertainties.

Settings: Gas; for mass density: Gas pipette; for viscosity: Oscillating disk viscometry

Q: What does the source list for `N#N` [nitrogen]?
A: mass density (298.15 K, 101 kPa): 1.178 ± 0.072 kg/m3; viscosity (298.15 K, 101 kPa): 0.01786 ± 0.00057 mPa·s; mass density (298.15 K, 240 kPa): 2.833 ± 0.17 kg/m3; viscosity (298.15 K, 240 kPa): 0.01788 ± 0.00057 mPa·s; mass density (298.15 K, 672 kPa): 7.705 ± 0.46 kg/m3; viscosity (298.15 K, 672 kPa): 0.01794 ± 0.00057 mPa·s; mass density (323.15 K, 101 kPa): 0.858 ± 0.053 kg/m3; viscosity (323.15 K, 101 kPa): 0.01901 ± 0.0006 mPa·s; mass density (323.15 K, 290 kPa): 3.114 ± 0.19 kg/m3; viscosity (323.15 K, 290 kPa): 0.01904 ± 0.0006 mPa·s; mass density (323.15 K, 466 kPa): 4.925 ± 0.3 kg/m3; viscosity (323.15 K, 466 kPa): 0.01906 ± 0.0006 mPa·s; mass density (323.15 K, 856 kPa): 9.024 ± 0.54 kg/m3; viscosity (323.15 K, 856 kPa): 0.01911 ± 0.0006 mPa·s; mass density (348.15 K, 101 kPa): 0.761 ± 0.047 kg/m3; viscosity (348.15 K, 101 kPa): 0.0201 ± 0.00062 mPa·s; mass density (348.15 K, 518 kPa): 5.043 ± 0.3 kg/m3; viscosity (348.15 K, 518 kPa): 0.02016 ± 0.00062 mPa·s; mass density (348.15 K, 1010 kPa): 9.8 ± 0.59 kg/m3; viscosity (348.15 K, 1010 kPa): 0.02022 ± 0.00062 mPa·s; mass density (348.15 K, 2028 kPa): 19.63 ± 1.2 kg/m3; viscosity (348.15 K, 2028 kPa): 0.02037 ± 0.00063 mPa·s; mass density (373.15 K, 101 kPa): 0.633 ± 0.039 kg/m3; viscosity (373.15 K, 101 kPa): 0.02116 ± 0.00065 mPa·s; mass density (373.15 K, 495 kPa): 4.527 ± 0.27 kg/m3; viscosity (373.15 K, 495 kPa): 0.02121 ± 0.00065 mPa·s; mass density (373.15 K, 1000 kPa): 8.832 ± 0.53 kg/m3; viscosity (373.15 K, 1000 kPa): 0.02126 ± 0.00065 mPa·s; mass density (373.15 K, 2006 kPa): 18.01 ± 1.1 kg/m3; viscosity (373.15 K, 2006 kPa): 0.0214 ± 0.00065 mPa·s; mass density (373.15 K, 2930 kPa): 26.15 ± 1.6 kg/m3; viscosity (373.15 K, 2930 kPa): 0.02152 ± 0.00066 mPa·s; mass density (373.15 K, 3985 kPa): 35.64 ± 2.1 kg/m3; viscosity (373.15 K, 3985 kPa): 0.02168 ± 0.00066 mPa·s; mass density (373.15 K, 4966 kPa): 44.7 ± 2.7 kg/m3; viscosity (373.15 K, 4966 kPa): 0.02184 ± 0.00066 mPa·s; mass density (398.15 K, 101 kPa): 0.727 ± 0.045 kg/m3; viscosity (398.15 K, 101 kPa): 0.02219 ± 0.00067 mPa·s; mass density (398.15 K, 520 kPa): 4.329 ± 0.26 kg/m3; viscosity (398.15 K, 520 kPa): 0.02222 ± 0.00067 mPa·s; mass density (398.15 K, 1003 kPa): 8.657 ± 0.52 kg/m3; viscosity (398.15 K, 1003 kPa): 0.02228 ± 0.00067 mPa·s; mass density (398.15 K, 2000 kPa): 16.49 ± 0.99 kg/m3; viscosity (398.15 K, 2000 kPa): 0.0224 ± 0.00068 mPa·s; mass density (398.15 K, 3473 kPa): 28.94 ± 1.7 kg/m3; viscosity (398.15 K, 3473 kPa): 0.02259 ± 0.00068 mPa·s; mass density (398.15 K, 4849 kPa): 40.28 ± 2.4 kg/m3; viscosity (398.15 K, 4849 kPa): 0.02278 ± 0.00068 mPa·s; mass density (423.15 K, 101 kPa): 0.568 ± 0.035 kg/m3; viscosity (423.15 K, 101 kPa): 0.02318 ± 0.00069 mPa·s; mass density (423.15 K, 550 kPa): 4.226 ± 0.25 kg/m3; viscosity (423.15 K, 550 kPa): 0.02322 ± 0.00069 mPa·s; mass density (423.15 K, 1032 kPa): 8.294 ± 0.5 kg/m3; viscosity (423.15 K, 1032 kPa): 0.02328 ± 0.0007 mPa·s; mass density (423.15 K, 2012 kPa): 15.86 ± 0.95 kg/m3; viscosity (423.15 K, 2012 kPa): 0.02338 ± 0.0007 mPa·s; mass density (423.15 K, 3435 kPa): 26.9 ± 1.6 kg/m3; viscosity (423.15 K, 3435 kPa): 0.02354 ± 0.0007 mPa·s; mass density (423.15 K, 4832 kPa): 37.69 ± 2.3 kg/m3; viscosity (423.15 K, 4832 kPa): 0.02373 ± 0.00071 mPa·s
